Measurements: patent US8946247B2, “Quinazoline carboxamide azetidines” (Merck Patent GmbH, priority 2010, dated 2015)

How the values were obtained:
Aurora B = molecular target: T1, Aurora B (Homo sapiens, UniProt Q96GD4); experiment: Aurora B Kinase Assay; format: biochemical; details: GST-Aurora B (1-344), 10 uM ATP, 90 min at 25 C
T1 construct: GST-Aurora B (1-344 amino acids); GST (N); purchased Carna Biosciences 05-102
Description: To measure inhibitor activity of Aurora B inhibitors in the Caliper Life Sciences LC3000, a TTP Mosquito liquid handling instrument was used to place 0.25 ul of the appropriate concentration of inhibitor in 100% DMSO (for a dose response curve calculation) into each well of a 384-well plate. To this reaction components was added to a final volume of 25 ul: • 0.1 ng/ul GST-Aurora B (1-344 amino acids), (Carna Biosciences 05-102. N-terminal GST fusion with His tagged INCEP, accession number Q96GD4). • 10 uM ATP (Fluka, 02055) • 1 mM DTT (Sigma, D0632) • 1 mM MgCl2 (Sigma, M1028) • 1 uM substrate peptide (sequence FITC-LRRASLG-(CONH2), synthesized by Tufts Peptide Synthesis service. • 100 mM HEPES pH 7.5 (Calbiochem, 391338) • 0.015% Brij-35 (Sigma, B4184)
(§1) The reaction was incubated for 90 min at 25 C, and then stopped by the addition of 70 ul of Stop buffer (100 mM HEPES pH 7.5, 0.015% Brij-35, 10 mM EDTA (Sigma, E7889)).
The plate was read on a Caliper LC 3000 in an Off-Chip mobility shift assay format, using the following parameters for a 12-sipper chip: screening pressure −1.8 psi, upstream voltage −2700, downstream voltage −1000. These conditions caused unphosphorylated substrate and phosphorylated product peptide to resolve as separate peaks allowing direct measurement of percentage of conversion of substrate to product. The percent conversion was plotted against concentration of inhibitor to produce a sigmoidal dose response curve, from which an IC50 was calculated using XLFit for Microsoft Excel.

pS6 MDA-MB-468 = experiment: Cellular Activity Assay (phospho-S6 in MDA-MB-468 cells); format: cell-based; details: Homo sapiens, 2 hr compound incubation, percent pS6-positive cells
Description: MDA-MB-468 cells were grown in DMEM containing glutamine supplemented with 10% Fetal Bovine Serum (FBS) and 1× antibiotics. Cells were maintained by splitting 1:3 twice a week.
For the assay, cells were plated the evening before at a density of 4000 cells per well in black polyD lysine coated 384 well plates. Cells were incubated overnight (16 to 20 hours) in growth media. Compounds at an appropriate concentration were added to the wells and incubated for 2 hr. Controls included: i) no primary, ii) rabbit isotype, iii) propidium iodide (red) only and iv) anti-phospho-S6 antibody alone (green only). Cells were then fixed in 4% paraformaldehyde for 15-20 minutes at room temperature, then washed 3×80 ul with PBS.
50 ul 10% normal goat serum (NGS) with 0.2% triton X 100 in PBS were added and incubated for 30 to 60 minutes at room temperature. Anti-phospho-S6 antibody was diluted 1:800 2% with NGS in 0.2% TritonX-100 and 30 ul added to appropriate wells. The wells were incubated overnight at 4 degrees Celsius.
Then the wells were washed with 3×80 uL PBS. The secondary green fluorescence labeled antibody (Alexa Fluor® 488 F(ab′)2 fragment goat Anti-rabbit IgG (H+L)), was diluted 1:1500 in 2% NGS with 0.2% TritonX-100, and 30 ul were added to the appropriate wells which were then incubated in the dark at room temperature for 60 minutes. Then they were washed with 4×80 ul PBS. Propidium iodide (1.5 mM stock) was diluted 1:1000 in PBS, and 50 ul were added to the appropriate wells and incubated for 30 minutes at room temperature in the dark. Propidium iodide was not washed out. Plates were read on the Acumen Explorer.
Red and green cell populations were determined using controls. The number of green cells (pS6) and total number of cells (red) were then counted and the percentage of green cells was calculated. Percent positive cell data was plotted on a log scale against concentration of compounds and IC50 values were calculated from dose response curves.

P70S6K (T412E mutant) = molecular target: T2, P70S6K (T412E mutant) (Homo sapiens, UniProt P23443, T412E); experiment: p70S6K Enzyme Assay; format: biochemical; details: 24 μM ATP, 90 min at 25° C., Caliper mobility shift
T2 construct: purchased Millipore
T2 sequence (P23443 1-421 T412E limits assumed): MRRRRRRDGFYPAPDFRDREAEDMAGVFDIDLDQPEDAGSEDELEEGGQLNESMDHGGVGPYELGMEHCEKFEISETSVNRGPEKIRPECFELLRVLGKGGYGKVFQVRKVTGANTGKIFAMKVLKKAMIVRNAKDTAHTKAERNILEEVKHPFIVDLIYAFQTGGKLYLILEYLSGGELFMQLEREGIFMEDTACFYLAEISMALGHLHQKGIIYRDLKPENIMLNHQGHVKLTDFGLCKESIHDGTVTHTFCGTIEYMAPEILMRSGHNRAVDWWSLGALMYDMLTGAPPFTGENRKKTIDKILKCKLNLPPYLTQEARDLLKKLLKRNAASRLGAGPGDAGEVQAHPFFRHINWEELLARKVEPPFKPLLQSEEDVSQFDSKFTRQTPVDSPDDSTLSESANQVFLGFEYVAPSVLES
Description: p70S6K inhibitor compounds were diluted and plated in 96 well plates. A reaction mixture including the following components were then added to the compound plate to initiate the enzyme reaction; P70S6K (3 nM, T412E mutant, Millipore) was mixed with 24 μM ATP in an assay buffer containing 100 mM Hepes (pH 7.5), 5 mM MgCl2, 1 mM DTT, 0.015% Brij and 1 μM of the substrate peptide FITC-AHA-AKRRRLSSLRA-OH (derived from the S6 ribosomal protein sequence, FITC=fluorescein isothiocyanate, AHA=6-aminohexanoic acid). The reaction was incubated for 90 min at 25° C., before the addition of 10 mM EDTA to stop the reaction. The proportion of substrate and product (phosphorylated) peptide was analysed on a Caliper Life Sciences Lab Chip 3000, using a pressure of −1.4 psi, and upstream and downstream voltages of −3000 and −700 respectively. Product peaks were resolved before substrate peaks on the resulting chromatograms.
To assess the inhibitory potential of the compounds, IC50-values were determined, as shown in Chemical Synthesis section above.

Akt1 = molecular target: T3, Akt1 (Homo sapiens, UniProt P31749); experiment: AKT/PKB Kinase Assay; format: biochemical; details: His-AKT (Full Length), 160 uM ATP, 90 min at 25 C
T3 construct: 0.1 ng/ul His-AKT (Full Length), (Invitrogen, Part #P2999, Lot #641228C); His; purchased Invitrogen P2999
T3 sequence (P31749 whole entry): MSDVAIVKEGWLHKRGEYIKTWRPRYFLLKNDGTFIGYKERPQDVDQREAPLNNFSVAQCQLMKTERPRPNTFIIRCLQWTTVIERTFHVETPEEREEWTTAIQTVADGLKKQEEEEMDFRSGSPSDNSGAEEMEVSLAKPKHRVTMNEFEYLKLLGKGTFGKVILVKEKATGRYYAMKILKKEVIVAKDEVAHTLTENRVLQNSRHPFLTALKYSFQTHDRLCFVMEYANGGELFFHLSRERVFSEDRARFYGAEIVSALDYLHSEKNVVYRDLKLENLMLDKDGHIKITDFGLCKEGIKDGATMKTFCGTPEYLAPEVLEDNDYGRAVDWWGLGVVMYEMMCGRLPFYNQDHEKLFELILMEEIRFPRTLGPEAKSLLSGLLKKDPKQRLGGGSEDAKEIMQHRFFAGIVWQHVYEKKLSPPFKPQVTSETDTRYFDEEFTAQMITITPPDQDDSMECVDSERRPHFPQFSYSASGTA
Description: In order to measure AKT inhibition in the Caliper Life Sciences LC3000, a TTP Mosquito liquid handling instrument was used to place 125 nl of the appropriate concentration of inhibitor in 100% DMSO (for a dose response curve calculation) into each well of a 384-well plate. To this reaction components were added to a final volume of 12.5 ul: • 0.1 ng/ul His-AKT (Full Length), (Invitrogen, Part #P2999, Lot #641228C) • 160 uM ATP (Fluke, 02055) • 1 mM DTT (Sigma, D0632) • 1 mM MgCl2 (Sigma, M1028) • 1 uM substrate peptide (sequence FITC-AHA-GRPRTSSFAEG-NH2), synthesized by Tufts Peptide Synthesis service. • 100 mM HEPES pH 7.5 (Calbiochem, 391338) • 0.015% Brij-35 (Sigma, B4184)
as §1
The plate was read on a Caliper LC 3000 in an Off-Chip mobility shift assay format, using the following parameters for a 12-sipper chip: screening pressure −2.3 psi, upstream voltage −500, and downstream voltage −3000.
These conditions cause unphosphorylated substrate and phosphorylated product peptide to resolve as separate peaks allowing direct measurement of percentage of conversion of substrate to product. The percent conversion was plotted against concentration of inhibitor to produce a sigmoidal dose response curve, from which an IC50 was calculated.

T1 sequence (Q96GD4 whole entry, the tested form may be a part): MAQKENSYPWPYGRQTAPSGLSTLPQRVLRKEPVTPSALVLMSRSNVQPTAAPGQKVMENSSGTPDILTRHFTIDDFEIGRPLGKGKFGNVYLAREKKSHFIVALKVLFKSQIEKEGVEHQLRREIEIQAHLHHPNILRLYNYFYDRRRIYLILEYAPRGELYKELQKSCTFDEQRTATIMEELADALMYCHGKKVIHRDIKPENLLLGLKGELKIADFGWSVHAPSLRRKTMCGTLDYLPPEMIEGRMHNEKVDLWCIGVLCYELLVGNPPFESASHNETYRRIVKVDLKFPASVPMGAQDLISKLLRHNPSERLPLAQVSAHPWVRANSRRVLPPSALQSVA
T1 sequence (Q9NQS7 803-918 partner limits assumed): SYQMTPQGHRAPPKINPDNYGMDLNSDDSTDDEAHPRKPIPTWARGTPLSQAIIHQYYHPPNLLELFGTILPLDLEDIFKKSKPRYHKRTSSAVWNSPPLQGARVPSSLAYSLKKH

Row | IC50 (Aurora B) [nM] | IC50 (pS6 MDA-MB-468) [µM] | IC50 (P70S6K (T412E mutant)) [nM] | IC50 (Akt1) [nM] | IC50 (pS6 MDA-MB-468; head printed in uM) [µM] | SMILES
1 | 180 | 0.056 | 1.4 | 5.6 |  | NC(=O)c1cccc2c(N[C@H](CN3CCC3)c3cccc(C(F)(F)F)c3)ncnc12 [Example 27, 4-[(S)-2-Azetidin-1-yl-1-(3-trifluoromethyl-phenyl)-ethylamino]-quinazoline-8-carboxylic acid amide]
2 | 300 | 0.068 | 1.7 | 120 |  | NC(=O)c1cccc2c(N[C@H](CN3CCC3)c3ccc4c(c3)OCO4)ncnc12 [Example 20, 4-[(S)-2-Azetidin-1-yl-1-(1-benzo[1,3]dioxol)-ethylamino]-quinazoline-8-carboxylic acid amide]
3 | 107 | 1.03 | 8.7 | 77 |  | NC(=O)c1cccc2c(N[C@H](CN3CCC3)c3ccc(F)cc3Cl)ncnc12 [Example 24, 4-[(S)-2-Azetidin-1-yl-1-(2-chloro-4-fluoro-phenyl)-ethylamino]-quinazoline-8-carboxylic acid amide]
4 |  |  | 400 |  | > 10 | CC(C)Oc1ccc([C@@H](CN2CCC2)Nc2ncnc3c(C(N)=O)cccc23)cc1 [Example 36, 4-[(S)-2-Azetidin-1-yl-1-(4-isopropoxyphenyl)-ethylamino]-quinazoline-8-carboxylic acid amide]
5 | 150 | 0.029 | 1.3 | 11 |  | N#Cc1ccc([C@@H](CN2CCC2)Nc2ncnc3c(C(N)=O)cccc23)cc1 [Example 23, 4-[(S)-2-Azetidin-1-yl-1-(4-cyano-phenyl)-ethylamino]-quinazoline-8-carboxylic acid amide]
6 | > 1 |  | 130 |  | > 10 | COc1cc([C@@H](CN2CCC2)Nc2ncnc3c(C(N)=O)cccc23)cc(F)c1F [Example 40, 4-[(S)-2-Azetidin-1-yl-1-(3,4-difluoro-5-methoxyphenyl)-ethylamino]-quinazoline-8-carboxylic acid amide]
7 |  | 3.1 | 11 |  |  | NC(=O)c1cccc2c(N[C@H](CN3CCC3)c3ccccc3)ncnc12 [Example 21, 4-[(S)-2-Azetidin-1-yl-1-phenyl-ethylamino]-quinazoline-8-carboxylic acid amide]
8 | 210 |  | 4.6 |  |  | NC(=O)c1cccc2c(N[C@H](CN3CC(O)C3)c3ccc(F)c(F)c3)ncnc12 [Example 33, 4-[(S)-1-(3,4-Difluoro-phenyl)-2-(3-hydroxy-azetidin-1-yl)-ethylamino]-quinazoline-8-carboxylic acid amide]
9 | 69 | 0.086 | 1.1 | 25 |  | NC(=O)c1cccc2c(N[C@H](CN3CCC3)c3ccc(Cl)cc3F)ncnc12 [Example 14, 4-[(S)-2-Azetidin-1-yl-1-(2-fluoro-4-chlorophenyl)-ethylamino]-quinazoline-8-carboxylic acid amide]
10 | 370 | 0.199 | 1.7 | 187 |  | NC(=O)c1cccc2c(N[C@H](CN3CCC3)c3ccc(OC(F)(F)F)cc3)ncnc12 [Example 30, 4-[(S)-2-Azetidin-1-yl-1-(4-trifluoromethoxy-phenyl)-ethylamino]-quinazoline-8-carboxylic acid amide]
11 | 54 | 0.064 | 1 |  |  | NC(=O)c1cc(F)cc2c(N[C@H](CN3CCC3)c3ccc(Cl)c(F)c3)ncnc12 [Example 51, 4-[(S)-2-Azetidin-1-yl-1-(4-chloro-3-fluoro-phenyl)-ethylamino]-6-fluoro-quinazoline-8-carboxylic acid amide]
12 |  | 0.324 | 2.4 | 72 |  | NC(=O)c1cccc2c(N[C@H](CN3CC(F)C3)c3cccc(Cl)c3)ncnc12 [Example 22, 4-[(S)-2-(3-Fluoro-azetidin-1-yl)-1-(3-chlorophenyl)-ethylamino]-quinazoline-8-carboxylic acid amide]
13 | 690 | 0.061 | 2.4 |  |  | NC(=O)c1cccc2c(N[C@H](CN3CCC3)c3ccc(OC(F)(F)F)c(Cl)c3)ncnc12 [Example 28, 4-[(S)-2-Azetidin-1-yl-1-(3-chloro-4-trifluoromethoxy-phenyl)-ethylamino]-quinazoline-8-carboxylic acid amide]
14 |  | 0.577 | 8.6 |  |  | NC(=O)c1ccc([C@@H](CN2CCC2)Nc2ncnc3c(C(N)=O)cccc23)cc1 [Example 35, 4-[(S)-2-Azetidin-1-yl-1-(4-carbamoylphenyl)-ethylamino]-quinazoline-8-carboxylic acid amide]
15 | 340 | > 0.01 | 42 |  |  | NC(=O)c1cccc2c(N[C@H](CN3CC(F)(F)C3)c3ccc(Cl)cc3)ncnc12 [Example 32, 4-[(S)-1-(4-Chloro-phenyl)-2-(3,3-difluoro-azetidin-1-yl)-ethylamino]-quinazoline-8-carboxylic acid amide]
16 |  | 0.019 | 1.6 | 7.7 |  | NC(=O)c1cccc2c(N[C@H](CN3CCC3)c3ccc(Cl)c(F)c3)ncnc12 [Example 29, 4-[(S)-2-Azetidin-1-yl-1-(4-chloro-3-fluoro-phenyl)-ethylamino]-quinazoline-8-carboxylic acid amide]
17 |  | 0.063 | 0.8 |  |  | CC(C)c1ccc([C@@H](CN2CCC2)Nc2ncnc3c(C(N)=O)cccc23)cc1 [Example 34, 4-[(S)-2-Azetidin-1-yl-1-(4-isopropylphenyl)-ethylamino]-quinazoline-8-carboxylic acid amide]
